Results: patent US20040138301A1, “Chemical uncouplers for the treatment of obesity” (priority 2002, published 2004)
Read-outs that look alike come from different tables or passages of the source.

Test system: HEP-G2 cells
Experiment: cells
Conditions: for EC50 / Emax / EC (Emax): Homo sapiens; for EC50: HepG2, 3 h
Description: Assay (I): Glucose utilisation in a human hepatocytes cell line (HEP-G2 cells)
The assay measures indirectly the activity of the respiratory chain in HEP-G2 cells by using D-(3-^3H(N))-glucose. The ^3H-proton will first be released during the metabolism of glucose where it will be incorporated into water. The water is thereafter separated from the D-(3-^3H(N))-glucose by evaporation. Finally, the radioactivity in the water is determined using a Topcounter.
HEP-G2 cells obtained from ATCC (Maryland, USA), are cultured in assay medium (MEM medium) with the following addition 1× non-essential amino acids (M7145, 2 mM glutamine, 100 units/ml penicillin and streptomycin, 0.0075% sodium bicarbonate, 1 mM sodium pyrovate and 0.5% BSA (Bovin Serum Albumin, Sigma Missouri, USA)) at 37° C. and 5% CO2. All media are obtained by Gibco (Life Technologies, Maryland, USA) where not otherwise mentioned.
At day zero the cells are harvested using trypsin-EDTA and washed in assay medium using centrifugation. […] The cells are then incubated at 37° C. and 5% CO2 overnight.
The next day the compounds to be tested are diluted in DMSO (Sigma, Missouri, USA) to 100 times final concentration. They are then diluted to a final concentration in assay medium containing 10 μCi/ml D-(3-^3H(N))-glucose (PerkinElmer Life Sciences Inc., Boston, USA). The medium is removed from the cells and 200 μl of the compound dilutions are added in duplicates. The cells are then incubated for another 3 hours at 37° C. and 5% CO2. Finally the cells are lysed by adding 50 μl 10% TCA (trichloroacetic acid). 300 μl of sterile water is then added to the 24-wells that surrounds the StripPlate wells. The plate is sealed with Top-seal-tape (Packard, PerkinElmer Life Sciences Inc., Boston, USA) and the plate is incubated in a heating cupboard at 50° C. to equilibrium the radioactive water formed in the respiratory chain into the water in the 24-well plate by evaporate. The plates incubate for 8 hours where the heating cupboard is turned off. The top seal is removed when the samples have reached room temperature. One ml scintillation liquid (Packard Microscient, PerkinElmer Life Sciences Inc., Boston, USA) is added to all the samples and the radioactivity is determined using a Topcounter (Packard, PerkinElmer Life Sciences Inc., Boston, USA). Non-specific activity is determined by evaporating 200 μl of the dilution medium containing the D-(3-^3H(N))-glucose into 300 μl sterile water, and total radioactivity is determined by counting 5 μl assay medium with 10 μCi/ml D-(3-^3H(N))-glucose.
The cpm (counts per minute) representing the non-specific radioactivity in the D-(3-^3H(N))-glucose is subtracted from all incubated values. Then mean basal value (samples without any compound added) is subtracted from the values of all stimulated samples (samples added different concentrations of the different test compounds). All these calculations are done using GraphPad Prism 3.0 (GraphPad software, Inc.). The maximal stimulation caused by the test compounds is calculated in percentage of maximal stimulation caused by either DNP or FCCP.
When calculating the concentration-response curve the maximal glucose utilisation stimulated by FCCP or DNP (subtracted non-specific and basal values) is converted to 100% and all the other values are expressed in percentage of this value. Using these percentage values and the compound concentration a concentration-response curve is calculated using sigmoidal dose-response (variable slope) equation (all the calculations are done by GraphPad Prism 3.0 (GraphPad software, Inc.));
Y=Bottom+(Top−Bottom)/(1+10^((LogEC50-X)*slope))
X is the logarithm of the molar concentration of the test compound.
Y is the degree of stimulation caused by the compound measured as a percentage of the maximal stimulation achieved by use of FCCP or DNP.
The results achieved with these concentrations are used to determine the slope in this area using the following equation: […]

[1] = read-out: HEP-G2 EC50, HEP-G2 cells, glucose utilisation, 3 hours incubation
[2] = HepG2, read-out: HEP-G2 Emax (% of FCCP), HEP-G2 cells, maximal stimulation relative to FCCP
[3] = HepG2, read-out: HEP-G2 Emax (μM), HEP-G2 cells, concentration at which Emax is achieved (CEmax)
[4] = HepG2, read-out: HEP-G2 Emax (% of FCCP)
[5] = HepG2, read-out: HEP-G2 Emax (μM)

Compound	EC50 [1] [µM]	Emax [2] [%]	EC (Emax) [3] [µM]	EC50 (read-out: HEP-G2 EC50) [µM]	Emax [4] [%]	EC (Emax) [5] [µM]	HEP-G2 Tox (concentration with sign of toxicity (significant drop in glucose utilisation))	HEP-G2 Tox (human, 3 h)
COc1ccc(O)c([N+](=O)[O-])c1 [Example 2, 4-Methoxy-2-Nitrophenol]	290	35	1000	–	–	–	–	–
CC(=O)c1ccc(O)c([N+](=O)[O-])c1 [Example 3, 4-Hydroxy-3-Nitroacetophenone]	270	75	1000	–	–	–	–	–
N#Cc1ccc(NC(=O)c2cc(C(F)(F)F)cc(C(F)(F)F)c2)cc1C(F)(F)F [Example 6, N-1-[4-Cyano-3-(Trifluoromethyl)Phenyl]-3,5-Di(Trifluoromethyl)Benzamide]	–	–	–	1.6	95	10	Tox 0.1 mM	–
O=C(Nc1ccc([N+](=O)[O-])cc1Cl)c1ccc2ccccc2c1O [Example 8, 2′-Chloro-1-Hydroxy-4′-Nitro-2-Naphthanilide]	–	–	–	12	80	100	–	–
O=C(Nc1ccc(Br)cc1Cl)c1cc(Br)ccc1O [Example 9, N-(2-Chloro-4-Bromophenyl)-5-Bromosalicylanilide]	2.3	100	10	–	–	–	–	–
CC(C)(C)c1cc(/C=N/C(C#N)=C(\N)C#N)cc(C(C)(C)C)c1O [Example 17, 2-Amino-S-[(3,5-Di-Tert-Butyl-4-Hydroxybenzylidone)-Amino]-But-2-Enedinitrile]	6	45	30	–	–	–	–	Tox 0.1 mM
CCc1cc(C#N)cc2c(C)c(C)[nH]c12 [Example 22, 2,3-Dimethyl-5-Cyano-7-Ethylindole]	91	100	1000	–	–	–	–	–
N#Cc1c(-c2ccc(Cl)cc2)[nH]c(C(F)(F)F)c1Br [Example 23, 4-Bromo-2-(4-Chlorophenyl)-5-Trifluoromethyl-1H-Pyrrole-3-Carbonitrile]	–	–	–	1.75	117	30	–	–
O=C(Nc1ccc([N+](=O)[O-])c(C(F)(F)F)c1)c1cc(F)cc(C(F)(F)F)c1 [Example 65, 3-Fluoro-N-(4-Nitro-3-Trifluoromethyl-Phenyl)-5-Trifluoromethyl-Benzamide]	5.3	100	10	–	–	–	–	–
O=C(Nc1ccc([N+](=O)[O-])c(C(F)(F)F)c1)c1ccc(F)c(C(F)(F)F)c1 [Example 67, 4-Fluoro-N-(4-Nitro-3-Trifluoromethyl-Phenyl)-3-Trifluoromethyl-Benzamide]	5.9	85	30	–	–	–	–	–

Further lines, with some results ahead:

EC50 [1] [µM]	Compound	Emax [2] [%]	EC (Emax) [3] [µM]	EC50 (read-out: HEP-G2 EC50) [µM]	Emax [4] [%]	EC (Emax) [5] [µM]	HEP-G2 Tox (concentration with sign of toxicity (significant drop in glucose utilisation))	HEP-G2 Tox (human, 3 h)
42	N#Cc1cc(NC(=O)c2cccc(C(F)(F)F)c2)ccc1Sc1ccccc1 [Example 24, N-(3-Cyano-4-Phenylsulfanyl-Phenyl)-3-Trifluoromethyl-Benzamide]	65	100	–	–	–	–	–
35.5	Cc1cc(C)c2[nH]cc(C=C(C#N)C#N)c2c1 [Example 28, 2-(5,7-Dimethyl-1H-Indol-3-Ylmethylene)-Malononitrile]	35	300	–	–	–	–	–
13	N#CC(C#N)=Cc1c[nH]c2ccc(Br)cc12 [Example 29, 2-(5-Bromo-1H-Indol-3-Ylmethylene)-Malononitrile]	65	30	–	–	–	–	–
≥ 300	Cc1ccc2[nH]cc(C=C(C#N)C#N)c2c1 [Example 31, 2-((5-Methyl-1H-Indol-3-Yl)Methylene)Malononitrile]	0	–	–	–	–	–	–
3.35	CC(C)c1cccc(C(=O)Nc2ccc([N+](=O)[O-])cc2Cl)c1O [Example 38, N-(2-Chloro-4-Nitro-Phenyl)-2-Hydroxy-3-Isopropyl-Benzamide]	105	30	–	–	–	–	–
6	Cc1ccc(C(C)C)c(O)c1C(=O)Nc1ccc([N+](=O)[O-])cc1Cl [Example 39, N-(2-Chloro-4-Nitro-Phenyl)-2-Hydroxy-3-Isopropyl-6-Methyl-Benzamide]	55	10	–	–	–	–	–
4	Cc1c(Br)cc(C(C)C)c(O)c1C(=O)Nc1ccc([N+](=O)[O-])cc1Cl [Example 41, 3-Bromo-N-(2-Chloro-4-Nitro-Phenyl)-6-Hydroxy-5-Isopropyl-2-Methyl-Benzamide]	103	30	–	–	–	–	–
0.6	Cc1cc(C(=O)Nc2ccc([N+](=O)[O-])cc2Cl)c(O)c(C(C)(C)C)c1 [Example 45, 3-Tert-Butyl-N-(2-Chloro-4-Nitro-Phenyl)-2-Hydroxy-5-Methyl-Benzamide]	96	3	–	–	–	–	–
3	Cc1ccc(C(C)C)c(C(=O)Nc2ccc([N+](=O)[O-])cc2Cl)c1O [Example 46, N-(2-Chloro-4-Nitro-Phenyl)-2-Hydroxy-6-Isopropyl-3-Methyl-Benzamide]	103	10	–	–	–	–	–
0.31	Cc1c(Br)cc(C(C)C)c(O)c1C(=O)Nc1ccc([N+](=O)[O-])cc1C(F)(F)F [Example 57, 3-Bromo-6-Hydroxy-5-Isopropyl-2-Methyl-N-(4-Nitro-2-Trifluoromethyl-Phenyl)-Benzamide]	90	10	–	–	–	–	–
2.6	O=C(Nc1cc(C(F)(F)F)cc(C(F)(F)F)c1)c1cc(F)cc(C(F)(F)F)c1 [Example 64, N-(3,5-Bis-Trifluoromethyl-Phenyl)-3-Fluoro-5-Trifluoromethyl-Benzamide]	105	10	–	–	–	–	–
4.3	O=C(Nc1cc(C(F)(F)F)cc(C(F)(F)F)c1)c1ccc(C(F)(F)F)c(F)c1 [Example 66, N-(3,5-Bis-Trifluoromethyl-Phenyl)-3-Fluoro-4-Trifluoromethyl-Benzamide]	95	10	–	–	–	–	–
2.9	CC(C)(C)c1cc(/C=C(\C#N)c2ccncc2)cc(C(C)(C)C)c1O [Example 78, 3-(3,5-Di-Tert-Butyl-4-Hydroxy-Phenyl)-2-Pyridin-4-Yl-Acrylonitrile]	80	10	–	–	–	–	–
1	CC(C)(C)c1cc(/C=C(\C#N)c2cc(C(F)(F)F)cc(C(F)(F)F)c2)cc(C(C)(C)C)c1O [Example 79, 2-(3,5-Bis-Trifluoromethyl-Phenyl)-3-(3,5-Di-Tert-Butyl-4-Hydroxy-Phenyl)-Acrylonitrile]	80	3	–	–	–	–	Tox 0.3 mM
